Values joined by “and” are separate entries in the source; they are usually repeats but may differ in a detail not shown here. Equal entries are not always repeated. Inconclusive results and toxic doses are left out. Rule as the data show it: active = T/C of 150% or more; inactive = T/C below 125%.
System: L1210 leukemia ip in BDF1 mice, survival T/C
Experiment: NCI In Vivo Anticancer Drug Screen. Data for tumor model L1210 Leukemia (intraperitoneal) in B6D2F1 (BDF1) mice
Details: endpoint: mean survival time, higher = longer survival
Procedure, shortened: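 In this screen, tumor-bearing mice given compound are compared to those given vehicle, and their survival values are reported as a treated-to-control quotient.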

[1] = dose: 100.0 mg/kg/injection, schedule: Q01DX001 (ip), vehicle: Klucel (hydroxypropylcellulose) (HPC)
[2] = dose: 100.0 mg/kg/injection, schedule: Q01DX009 (ip), vehicle: Klucel (hydroxypropylcellulose) (HPC)
[3] = dose: 100.0 mg/kg/injection, schedule: Q04DX002 (ip), vehicle: Klucel (hydroxypropylcellulose) (HPC)
[4] = dose: 100.0 mg/kg/injection, schedule: Q04DX003 (ip), vehicle: Klucel (hydroxypropylcellulose) (HPC)
[5] = dose: 200.0 mg/kg/injection, schedule: Q01DX001 (ip), vehicle: Klucel (hydroxypropylcellulose) (HPC)
[6] = dose: 200.0 mg/kg/injection, schedule: Q01DX009 (ip), vehicle: Klucel (hydroxypropylcellulose) (HPC)
[7] = dose: 200.0 mg/kg/injection, schedule: Q04DX002 (ip), vehicle: Klucel (hydroxypropylcellulose) (HPC)
[8] = dose: 200.0 mg/kg/injection, schedule: Q04DX003 (ip), vehicle: Klucel (hydroxypropylcellulose) (HPC)
[9] = dose: 400.0 mg/kg/injection, schedule: Q01DX001 (ip), vehicle: Klucel (hydroxypropylcellulose) (HPC)
[10] = dose: 400.0 mg/kg/injection, schedule: Q01DX009 (ip), vehicle: Klucel (hydroxypropylcellulose) (HPC)
[11] = dose: 400.0 mg/kg/injection, schedule: Q04DX002 (ip), vehicle: Klucel (hydroxypropylcellulose) (HPC)
[12] = dose: 400.0 mg/kg/injection, schedule: Q04DX003 (ip), vehicle: Klucel (hydroxypropylcellulose) (HPC)
[13] = dose: 50.0 mg/kg/injection, schedule: Q01DX009 (ip), vehicle: saline with Tween-80
[14] = dose: 100.0 mg/kg/injection, schedule: Q04DX003 (ip), vehicle: saline
[15] = dose: 200.0 mg/kg/injection, schedule: Q04DX003 (ip), vehicle: saline
[16] = dose: 100.0 mg/kg/injection, schedule: Q01DX001 (ip), vehicle: carboxymethylcellulose (CMC)
[17] = dose: 100.0 mg/kg/injection, schedule: Q01DX009 (ip), vehicle: saline with Tween-80
[18] = dose: 200.0 mg/kg/injection, schedule: Q01DX001 (ip), vehicle: carboxymethylcellulose (CMC)
[19] = dose: 200.0 mg/kg/injection, schedule: Q01DX009 (ip), vehicle: saline with Tween-80
[20] = dose: 400.0 mg/kg/injection, schedule: Q01DX001 (ip), vehicle: carboxymethylcellulose (CMC)

Measured: T/C

CC(=O)c1cccc(NC(=O)Nc2nccs2)c1
inactive: [1] 100 % of control | [2] 101 % of control and 92 % of control | [3] 101 % of control and 91 % of control | [4] 101 % of control | [5] 104 % of control | [6] 104 % of control | [7] 104 % of control and 109 % of control | [8] 103 % of control | [9] 96 % of control | [10] 109 % of control and 88 % of control | [11] 96 % of control | [12] 96 % of control

CCC[CH2][Sn]([Br])([c]1ccccc1)[c]1ccccc1
inactive: dose: 0.39 mg/kg/injection, schedule: Q01DX009 (ip), vehicle: saline with Tween-80 92 % of control | dose: 0.78 mg/kg/injection, schedule: Q01DX009 (ip), vehicle: saline with Tween-80 101 % of control | dose: 1.56 mg/kg/injection, schedule: Q01DX009 (ip), vehicle: saline with Tween-80 89 % of control

C=C(Br)CNC(=O)OCCCC
inactive: dose: 12.5 mg/kg/injection, schedule: Q01DX009 (ip), vehicle: saline with Tween-80 94 % of control | dose: 25.0 mg/kg/injection, schedule: Q01DX009 (ip), vehicle: saline with Tween-80 100 % of control | [13] 98 % of control | [14] 94 % of control | [15] 102 % of control

O=C(Oc1ccc(Cl)cc1Cl)c1ccc([N+](=O)[O-])cc1
inactive: [3] 93 % of control | [7] 97 % of control | [11] 87 % of control

O=[N+]([O-])c1ccccc1N=Nc1c(O)[nH]c2ccc(Cl)cc12
inactive: dose: 100.0 mg/kg/injection, schedule: Q01DX001 (ip), vehicle: saline 95 % of control | dose: 400.0 mg/kg/injection, schedule: Q01DX001 (ip), vehicle: saline 92 % of control

COC(=O)c1ccc(C(=O)CC(=O)c2ccccc2)cc1.COC(=O)c1ccc(C(=O)CC(=O)c2ccccc2)cc1.COC(=O)c1ccc(C(=O)CC(=O)c2ccccc2)cc1.COC(=O)c1ccc(C(=O)CC(=O)c2ccccc2)cc1.COC(=O)c1ccc(C(=O)CC(=O)c2ccccc2)cc1.[Th]
inactive: dose: 25.0 mg/kg/injection, schedule: Q01DX005 (ip), vehicle: Klucel (hydroxypropylcellulose) (HPC) 89 % of control | dose: 25.0 mg/kg/injection, schedule: Q01DX009 (ip), vehicle: Klucel (hydroxypropylcellulose) (HPC) 100 % of control | dose: 50.0 mg/kg/injection, schedule: Q01DX005 (ip), vehicle: Klucel (hydroxypropylcellulose) (HPC) 93 % of control | dose: 50.0 mg/kg/injection, schedule: Q01DX009 (ip), vehicle: Klucel (hydroxypropylcellulose) (HPC) 100 % of control | dose: 100.0 mg/kg/injection, schedule: Q01DX005 (ip), vehicle: Klucel (hydroxypropylcellulose) (HPC) 93 % of control and 89 % of control | [2] 93 % of control | [3] 96 % of control | [7] 100 % of control | [11] 93 % of control

CC(C)=C1C2CCC1C(COS(=O)(=O)c1ccc(C)cc1)C2COS(=O)(=O)c1ccc(C)cc1 (centres undefined)
inactive: [2] 96 % of control | [4] 98 % of control | [6] 100 % of control | [8] 104 % of control | [10] 94 % of control | [12] 102 % of control

O=C1CCc2cc3c(cc21)OCO3
inactive: [14] 103 % of control | [15] 96 % of control | dose: 400.0 mg/kg/injection, schedule: Q04DX003 (ip), vehicle: saline 102 % of control

N=C(N=C(Cc1ccccc1)c1ccccc1)c1ccccc1
inactive: [1] 92 % of control | [4] 104 % of control | [5] 92 % of control | [8] 96 % of control | [9] 94 % of control | [12] 91 % of control

CC(C)=CCC/C(C)=C/CO
inactive: [13] 92 % of control | [16] 95 % of control | [17] 98 % of control | [18] 108 % of control | [19] 98 % of control | [20] 101 % of control

CC(C)N1C(=O)NC(=O)C12CCN(Cc1ccccc1)CC2
inactive: [16] 101 % of control | [18] 98 % of control | [20] 95 % of control

O=C(O)C1=CCCc2ccc(Br)cc21
inactive: [13] 93 % of control | [17] 95 % of control | [19] 98 % of control

CC1(C)OCC2OC3(C(=O)O)OC(C)(C)OC3C2O1 (centres undefined)
inactive: dose: 25.0 mg/kg/injection, schedule: Q01DX009 (ip), vehicle: water 105 % of control | dose: 50.0 mg/kg/injection, schedule: Q01DX009 (ip), vehicle: water 101 % of control | dose: 100.0 mg/kg/injection, schedule: Q01DX009 (ip), vehicle: water 96 % of control | dose: 200.0 mg/kg/injection, schedule: Q01DX009 (ip), vehicle: water 101 % of control | dose: 400.0 mg/kg/injection, schedule: Q01DX009 (ip), vehicle: water 95 % of control

CN1C(=O)CCN(CCCN2CCC(=O)N(C)C2=S)C1=S
inactive: dose: 100.0 mg/kg/injection, schedule: Q04DX002 (ip), vehicle: saline with Tween-80 95 % of control | dose: 200.0 mg/kg/injection, schedule: Q04DX002 (ip), vehicle: saline with Tween-80 95 % of control | dose: 400.0 mg/kg/injection, schedule: Q04DX002 (ip), vehicle: saline with Tween-80 88 % of control
